Data set [1] can be described thus: Solid-state stability evaluation test (XRPD and HPLC). The data set is classed as physicochemical. On the procedure:
(§1) The purity test, dynamic solubility test, and stability test in the assay were performed using an ultra-performance liquid chromatograph (UPLC).
Their physical and chemical stability were evaluated by XRPD and HPLC.

Data set [2] is described as follows: Hygroscopicity test (DVS). The data set is classed as physicochemical. On the procedure: Dynamic vapor sorption (DVS) curves were collected on DVS Intrinsic Plus from SMS (Surface Measurement Systems). The relative humidity at 25°C was corrected using the deliquescence points of LiCl, Mg(NO3)2, and KCl.
A short description of data set [3]: Dynamic solubility test of crystal forms in H2O, SGF, FaSSIF and FeSSIF. It is filed as physicochemical. The conditions noted are these: 37°C; for S: concentration of the compound represented by formula I-3B / solubility thermodynamic at 24 h: loading 10 mg/mL; for solubility thermodynamic at 24 h: read-out: S: concentration of the compound represented by formula I-3B; for FC: crystal form conversion: XRPD; for pH: filtrate. On the procedure:
as §1
After sampling at each time point, the samples were centrifuged (12,000 rpm, 2 minutes) and filtered (0.45 µm PTFE membrane), and the HPLC concentration and pH value of the filtrate were measured. The solid samples after centrifugation were tested for XRPD.

The test system of data set [4] is mouse IPF treatment model. Briefly: Efficacy test on mouse IPF treatment model (Bleomycin-induced). The following applies: mean; Nintedanib 60 mg/kg qd, oral gavage, 14 consecutive days from day 7. The data set is classed as in vivo, mice. As to the method:
(§2) Male mice were adaptively fed for 1 to 2 weeks and after reaching the standard weight (25 g), the IPF model (idiopathic pulmonary fibrosis model) was induced with a certain dose of Bleomycin. On the day of modeling, the animals were randomly divided into a model group and an administration group according to their weight, in which the administration groups were administered Nintedanib (60 mg/kg, qd), low-dose compound I-3B obtained in Example 1 (1 mg/kg, bid), and high-dose compound I-3B obtained in Example 1 (2.5 mg/kg, bid) by oral gavage for 14 consecutive days starting from day 7 while the vehicle control group was administered blank vehicle. During the administration period, the animals were weighed twice a week. At the end of the last day of administration, the animals were euthanized. The lungs were removed from the thyroid cartilage (without perfusion), slowly perfused with 10% formalin until both lungs were filled, and fixed in 10% formalin 5 to 10 times the volume of the tissues after the trachea was ligated. The left lung tissues were embedded in paraffin wax, sectioned, and stained with HE and Masson Trichrome. The sections were subjected to panoramic scanning using a Hamamatsu NanoZoomer Digital Pathology (S210) slide scanner for pathological analysis.

Data set [5] has as its system mouse IPF prevention model. The experiment in a line: Efficacy test on mouse IPF prevention model (Bleomycin-induced). The data set is classed as in vivo, mice. The conditions noted are these: mean; Nintedanib 60 mg/kg qd, oral gavage, 21 consecutive days. As to the method:
as §2, with “once a day (qd))” for “qd), low-dose compound I-3B obtained in Example 1 (1 mg/kg, bid),”, “and” for “and high-dose”, “twice a day (bid))” for “bid)”, “21” for “14”, “days” for “days starting from day 7”, “every 3 days.” for “twice a week.”

The target in a further data set is T1, 15-PGDH (Homo sapiens, UniProt P15428).
T1 construct: purchased R&D Systems 5660-DH-010
T1 sequence (P15428 1-266): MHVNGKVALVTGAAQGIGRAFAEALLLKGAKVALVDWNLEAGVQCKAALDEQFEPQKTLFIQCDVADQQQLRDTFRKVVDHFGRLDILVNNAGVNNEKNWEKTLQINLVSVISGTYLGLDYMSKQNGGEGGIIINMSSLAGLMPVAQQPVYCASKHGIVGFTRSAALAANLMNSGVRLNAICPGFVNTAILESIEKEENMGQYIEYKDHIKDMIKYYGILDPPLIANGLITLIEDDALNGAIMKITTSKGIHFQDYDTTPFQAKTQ
Briefly: 15-PGDH enzyme inhibition assay (fluorescence, NAD+/PGE2). The data set is classed as biochemical. The following applies: 15-PGDH inhibition. As to the method:
15-PGDH (R&D Systems, Cat. No. 5660-DH-010) was prepared to twice the final concentration, i.e., 30 nM, using Assay Buffer (50 mM Tris-HCl, pH 7.5, 0.01% Tween 20 by volume). 15-PGDH was then added to a 384-well white plate (Cisbio Bioassays, Cat. No. 66PL384025) at 8 µL/well. Negative control wells (with Assay Buffer only and without enzyme) were set. The compound was then prepared to 4 times the final concentration using Assay Buffer, i.e., diluted 3-fold to 10 concentrations starting from 4000 nM. The compound was added to the above white plate at 4 µL/well, mixed well, centrifuged at 1000 rpm for 1 minute, and incubated at 25°C for 10 minutes. Both positive control wells (with 15-PGDH only) and negative control wells (without 15-PGDH) were set. A mixture of NAD^+ (Select, Cat. No. S2518) and PGE2 (R&D Systems, Cat. No.:2296110) was then prepared using Assay Buffer. NAD^+ and PGE2 were prepared to four times their final concentrations, i.e., 2 mM and 0.12 mM, respectively, using Assay Buffer. The mixture was then added to the above white plate at 4 µL/well, mixed well, centrifuged at 1000 rpm for 1 minute, and incubated at 25°C for 30 minutes for the reaction. The fluorescence was measured at an excitation wavelength of 340 nm and an emission wavelength of 485 nm using a TECAN SPARK 20M microplate reader. The IC50 value was calculated using four-parameter fitting with GraphPad Prism 8.0.

The nature of data set [6]: Pharmacokinetics in mice (oral gavage). It is filed as in vivo. The following applies: mouse, plasma, male CD-1 mice, 10 mg/kg. On the procedure:
The pharmacokinetic properties of the compounds obtained in Example 1 in mice were determined with reference to the following experimental methods.
Three male CD-1 mice were administered by oral gavage at a dose of 10 mg/kg, and the vehicle was 5% DMSO + 10% Solutol + 85% Saline. The mice were fasted overnight, and the time points of blood collection were before administration and at 15 minutes, 30 minutes, 1 hour, 2 hours, 4 hours, 8 hours, and 24 hours after administration. Blood samples were centrifuged at 6,800 g for 6 minutes at 2 to 8°C, and plasma was collected and stored at - 80°C. 10 µL of plasma at each time point was taken and added with 200 µL of methanol containing 100 ng/mL internal standard. The mixture was vortexed, mixed well, and centrifuged at 18,000 g for 7 minutes at 2 to 8°C. 200 µL of the mixture was transferred to a 96-well injection plate for LC-MS/MS quantitative analysis. The main pharmacokinetic parameters were analyzed using WinNonlin 7.0 software with non-compartmental model.

The values that follow come from patent EP4711372A1, “CRYSTAL FORM OF HETEROCYCLIC COMPOUND, SALT THEREOF, CRYSTAL FORM OF SALT THEREOF, AND USE” (Hubei Bio-Pharmaceutical Industrial Technological Institute …, priority 2023, dated 2024).

In brackets after ≈: the same amount, converted by molar mass. Read-outs that look alike come from different tables or passages of the source.

Take `Cn1nc2cc(N3C[C@H]4C[C@H]4c4cc(C(=O)N5CCC(F)(F)CC5)cnc43)ccn2c1=O` [listing 1 of 2 here]: the HPLC purity in data set [1] (peak at RRT 0.52 (impurity), 25°C/60% RH/open/1 week) came to 0.22 area%; in data set [1] (peak at RRT 0.52 (impurity), 40°C/75% RH/open/1 week), 0.22 area%; in data set [1] (peak at RRT 0.52 (impurity), 60°C/closed/1 day), 0.22 area%; in data set [1] (peak at RRT 0.52 (impurity), Onset), 0.22 area%; in data set [1] (peak at RRT 0.97 (impurity), 25°C/60% RH/open/1 week) it was 0.10 area%; in data set [1] (peak at RRT 0.97 (impurity), 40°C/75% RH/open/1 week), 0.09 area%. For the same compound, the HPLC purity in data set [1] (peak at RRT 0.97 (impurity), 60°C/closed/1 day) is on record as 0.10 area%; in data set [1] (peak at RRT 0.97 (impurity), Onset), 0.10 area%. The “moisture absorption weight gain” value in data set [2] (25°C/80% RH) amounted to 1.112%. In addition, the “change in crystal form after DVS testing (XRPD)” value in data set [2] (before and after DVS testing) is on record as “no change in crystal form”.

Take `Cn1nc2cc(N3C[C@H]4C[C@H]4c4cc(C(=O)N5CCC(F)(F)CC5)cnc43)ccn2c1=O` [listing 2 of 2 here]: the “S: concentration of the compound represented by formula I-3B” value in data set [3] (FaSSIF, 1 hour) stood at 2.6 mg/mL; in data set [3] (FaSSIF, 4 hours), 2.5 mg/mL; in data set [3] (FeSSIF, 1 hour) it was 3.0 mg/mL; in data set [3] (FeSSIF, 4 hours), 3.4 mg/mL; in data set [3] (H2O, 1 hour), 3.3 mg/mL; in data set [3] (H2O, 4 hours) it was 2.6 mg/mL. Moreover, the “S: concentration of the compound represented by formula I-3B” value is recorded as 5.3 mg/mL in data set [3] (SGF, 1 hour) and 5.1 mg/mL in data set [3] (SGF, 4 hours). Also, the solubility thermodynamic at 24 h in data set [3] (FaSSIF, 24 hours) is 2700 µg/mL (≈ 6.13 mM); in data set [3] (FeSSIF, 24 hours) it was 3900 µg/mL (≈ 8.85 mM); in data set [3] (simulated gastric fluid, SGF, 24 hours), 4700 µg/mL (≈ 10.7 mM); in data set [3] (water, H2O, 24 hours) it was 900 µg/mL (≈ 2.04 mM). Also, the “FC: crystal form conversion” value is on record as “No” in data set [3] (FaSSIF, 1 hour); “No” in data set [3] (FaSSIF, 4 hours); “No” in data set [3] (FaSSIF, 24 hours); “No” in data set [3] (FeSSIF, 1 hour); “No” in data set [3] (FeSSIF, 4 hours); “No” in data set [3] (FeSSIF, 24 hours). Moreover, the “FC: crystal form conversion” value in data set [3] (H2O, 1 hour) is recorded as “No”; in data set [3] (H2O, 4 hours) it was “No”; in data set [3] (H2O, 24 hours), “No”; in data set [3] (SGF, 1 hour), “No”; in data set [3] (SGF, 4 hours) it was “No”; in data set [3] (SGF, 24 hours) it was “No”. Moreover, the pH in data set [3] (FaSSIF, 1 hour) was found to be 6.46; in data set [3] (FaSSIF, 4 hours), 6.60; in data set [3] (FaSSIF, 24 hours), 6.70; in data set [3] (FeSSIF, 1 hour), 4.91; in data set [3] (FeSSIF, 4 hours), 4.96; in data set [3] (FeSSIF, 24 hours), 4.93. For the same compound, the pH in data set [3] (H2O, 1 hour) amounted to 8.57; in data set [3] (H2O, 4 hours), 8.59; in data set [3] (H2O, 24 hours), 8.95; in data set [3] (SGF, 1 hour), 1.82; in data set [3] (SGF, 4 hours), 1.94; in data set [3] (SGF, 24 hours) it was 2.11.

With `COC(=O)c1ccc2c(c1)NC(=O)/C2=C(\Nc1ccc(N(C)C(=O)CN2CCN(C)CC2)cc1)c1ccccc1` [Nintedanib, reference compound], the “Total pulmonary fibrosis score” value in data set [4] is recorded as 2.84; in data set [5] it was 3.39.

For the compound `Cn1nc2cc(N3CC4CC4c4cc(C(=O)N5CCC(F)(F)CC5)cnc43)ccn2c1=O` (stereo not shown) [compound I-3, 7-(6-(4,4-difluoropiperidine-1-carbonyl)-1,1a,2,7b-tetrahydro-3H-cyclopropa[c][1,8]naphthyridin-3-yl)-2-methyl-[1,2,4]triazolo[4,3-a]pyridin-3(2H)-one], at 15-PGDH, the IC50 worked out at 4.2 nM. For the same compound, in data set [6], the AUC(0-t) is 35500 ng·h/mL and the Cmax was found to be 3710 ng/mL.

As for `Cn1nc2cc(N3CC4CC4c4cc(C(=O)N5CCC(F)(F)CC5)cnc43)ccn2c1=O` (stereo not shown) [compound I-3A], the IC50 on 15-PGDH was determined as 12.2 nM.

By IC50 is commonly meant the midpoint of a concentration-inhibition curve. A high value points to weaker potency. As a reminder, the AUC(0-t) is the area under the concentration-time curve up to a stated or last time point. A low value points to low exposure. Broadly, the Cmax is the peak of the concentration-time curve.
